# Laboratory results taken from publication PMC9897432 (Proceedings of the National Academy of Sciences of the …, 2022).
# How the values were obtained:
# [1] = test system: osteoclastogenesis; settings: via off-target actions on M-CSF signaling; cited from earlier work
# [2] = test system: panel of 300 recombinant human kinases; assay type: biochemical; settings: 0.5 µM, panel of 300 kinases
structure (smiles),measurement,setting,value
COc1ccc(N2C(=O)N(c3c(C)cccc3Cl)Cc3cnc(Nc4ccc(C5CCN(C)CC5)cc4OC)nc32)nc1 [YKL-05-099],osteoclast maturation (in words),[1],directly blocks osteoclast maturation
same,S(80): portion of kinases tested inhibited >80%,[2],43/300
